Values joined by “and” are separate entries in the source; they are usually repeats but may differ in a detail not shown here. Equal values may be shown once. Inconclusive results and toxic doses are left out. How the source made its calls: active means survival T/C of 150% or more; inactive means T/C below 125% in these data.
Tested on: CD2F1 mice, L1210 leukemia ip, survival T/C
Assay: NCI In Vivo Anticancer Drug Screen. Data for tumor model L1210 Leukemia (intraperitoneal) in CD2F1 (CDF1) mice
Conditions: higher = longer survival
Summary of the method: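 In this screen, transplantable tumors were grown in mice given either the compound or its vehicle. Results were expressed as the treated measurement relative to the control measurement.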

[1] = endpoint: mean survival time, dose: 100.0 mg/kg/injection, schedule: Q01DX009 (ip), vehicle: saline sonified
[2] = endpoint: mean survival time, dose: 100.0 mg/kg/injection, schedule: Q04DX003 (ip), vehicle: saline with Tween-80
[3] = endpoint: mean survival time, dose: 200.0 mg/kg/injection, schedule: Q04DX003 (ip), vehicle: saline with Tween-80
[4] = endpoint: mean survival time, dose: 25.0 mg/kg/injection, schedule: Q04DX003 (ip), vehicle: saline with Tween-80
[5] = endpoint: mean survival time, dose: 50.0 mg/kg/injection, schedule: Q04DX003 (ip), vehicle: saline with Tween-80
[6] = endpoint: mean survival time, dose: 400.0 mg/kg/injection, schedule: Q04DX003 (ip), vehicle: saline with Tween-80
[7] = endpoint: mean survival time, dose: 100.0 mg/kg/injection, schedule: Q04DX002 (ip), vehicle: saline with Tween-80
[8] = endpoint: mean survival time, dose: 200.0 mg/kg/injection, schedule: Q04DX002 (ip), vehicle: saline with Tween-80
[9] = endpoint: mean survival time, dose: 50.0 mg/kg/injection, schedule: Q01DX009 (ip), vehicle: saline with Tween-80
[10] = endpoint: mean survival time, dose: 100.0 mg/kg/injection, schedule: Q01DX001 (ip), vehicle: saline with Tween-80
[11] = endpoint: mean survival time, dose: 100.0 mg/kg/injection, schedule: Q01DX009 (ip), vehicle: saline with Tween-80
[12] = endpoint: mean survival time, dose: 200.0 mg/kg/injection, schedule: Q01DX001 (ip), vehicle: saline with Tween-80
[13] = endpoint: mean survival time, dose: 200.0 mg/kg/injection, schedule: Q01DX009 (ip), vehicle: saline with Tween-80
[14] = endpoint: mean survival time, dose: 100.0 mg/kg/injection, schedule: Q01DX001 (ip), vehicle: saline
[15] = endpoint: mean survival time, dose: 200.0 mg/kg/injection, schedule: Q01DX001 (ip), vehicle: saline
[16] = endpoint: mean survival time, dose: 400.0 mg/kg/injection, schedule: Q01DX001 (ip), vehicle: saline
[17] = endpoint: mean survival time, dose: 400.0 mg/kg/injection, schedule: Q01DX001 (ip), vehicle: saline with Tween-80
[18] = endpoint: mean survival time, dose: 100.0 mg/kg/injection, schedule: Q01DX001 (ip), vehicle: Klucel (hydroxypropylcellulose) (HPC)
[19] = endpoint: mean survival time, dose: 200.0 mg/kg/injection, schedule: Q01DX001 (ip), vehicle: Klucel (hydroxypropylcellulose) (HPC)
[20] = endpoint: mean survival time, dose: 400.0 mg/kg/injection, schedule: Q01DX001 (ip), vehicle: Klucel (hydroxypropylcellulose) (HPC)
[21] = endpoint: median survival time, dose: 50.0 mg/kg/injection, schedule: Q01DX005 (ip), vehicle: saline
[22] = endpoint: median survival time, dose: 100.0 mg/kg/injection, schedule: Q01DX005 (ip), vehicle: saline
[23] = endpoint: median survival time, dose: 200.0 mg/kg/injection, schedule: Q01DX005 (ip), vehicle: saline

Measured: T/C

C=C(C)C1CCC2=CCCC(C)C2(C)C1 (stereo not drawn)
inactive: endpoint: mean survival time, dose: 50.0 mg/kg/injection, schedule: Q01DX009 (ip), vehicle: saline 98 % of control | endpoint: mean survival time, dose: 100.0 mg/kg/injection, schedule: Q01DX009 (ip), vehicle: saline 104 % of control | endpoint: mean survival time, dose: 200.0 mg/kg/injection, schedule: Q01DX009 (ip), vehicle: saline 90 % of control

CCC1(C)C(C#N)C(=O)NC(=O)C1C#N (stereo not drawn)
inactive: endpoint: mean survival time, dose: 50.0 mg/kg/injection, schedule: Q01DX009 (ip), vehicle: saline sonified 96 % of control | [1] 90 % of control | [2] 100 % of control | [3] 100 % of control

CCCCCC(=O)N1CCOCC1
inactive: [4] 98 % of control | [5] 98 % of control | [2] 104 % of control and 112 % of control | [3] 102 % of control | [6] 100 % of control

CNC(=S)N(C)c1nc(C)cs1
inactive: [7] 91 % of control | [8] 95 % of control | endpoint: mean survival time, dose: 400.0 mg/kg/injection, schedule: Q04DX002 (ip), vehicle: saline with Tween-80 103 % of control

CCc1ccc(C)[nH]c1=S
inactive: [9] 105 % of control | [10] 102 % of control | [11] 98 % of control | [12] 102 % of control | [13] 98 % of control

O=S(=O)(Cl)c1ccc2cc3ccccc3cc2c1
inactive: endpoint: mean survival time, dose: 50.0 mg/kg/injection, schedule: Q04DX003 (ip), vehicle: saline 96 % of control | [14] 94 % of control | endpoint: mean survival time, dose: 100.0 mg/kg/injection, schedule: Q04DX003 (ip), vehicle: saline 96 % of control | [15] 101 % of control | endpoint: mean survival time, dose: 200.0 mg/kg/injection, schedule: Q04DX003 (ip), vehicle: saline 102 % of control

C1CC[N-]CC1.CC(=N\O)/C(C)=N/O.CC(=N\O)/C(C)=N/O.[CH2-]CCN1CCOCC1.[Co+2]
inactive: endpoint: mean survival time, dose: 25.0 mg/kg/injection, schedule: Q01DX009 (ip), vehicle: saline with Tween-80 105 % of control | [4] 103 % of control | [9] 105 % of control | [5] 106 % of control | [2] 112 % of control

O=C(Sc1nc2ccccc2s1)c1ccccc1
inactive: [14] 95 % of control | [15] 97 % of control | [16] 115 % of control

CCCCCCCCCCCCCCCCCCCCCC(CC)CC
inactive: [10] 101 % of control | [12] 107 % of control | [17] 103 % of control

Nc1cnc2nc(N)[nH]c(=O)c2c1
inactive: [1] 97 % of control | [2] 93 % of control | endpoint: mean survival time, dose: 200.0 mg/kg/injection, schedule: Q01DX009 (ip), vehicle: saline sonified 102 % of control | [3] 93 % of control | endpoint: mean survival time, dose: 400.0 mg/kg/injection, schedule: Q01DX009 (ip), vehicle: saline sonified 93 % of control | [6] 95 % of control

Cc1c(NS(=O)(=O)c2ccccc2)c(C)c(NS(=O)(=O)c2ccccc2)c(C)c1NS(=O)(=O)c1ccccc1
inactive: [5] 92 % of control | [2] 88 % of control and 93 % of control | [3] 93 % of control and 94 % of control | [6] 96 % of control

COC(=O)c1cccc(C)n1
inactive: [11] 108 % of control | [13] 94 % of control | endpoint: mean survival time, dose: 400.0 mg/kg/injection, schedule: Q01DX009 (ip), vehicle: saline with Tween-80 94 % of control

CCCCCCCCCCCC[n+]1c(C)cc(N)c2ccccc21
inactive: endpoint: mean survival time, dose: 1.25 mg/kg/injection, schedule: Q01DX001 (ip), vehicle: other 103 % of control | endpoint: mean survival time, dose: 5.0 mg/kg/injection, schedule: Q01DX001 (ip), vehicle: other 101 % of control

Cc1cc(C)c(C(=O)O)c(C(=O)O)c1
inactive: [18] 106 % of control | [19] 95 % of control | [20] 106 % of control

O.[Co].[NH2-].[NH2-].[NH2-].[NH2-].[NH2-]
inactive: endpoint: mean survival time, dose: 25.0 mg/kg/injection, schedule: Q04DX002 (ip), vehicle: saline with Tween-80 93 % of control | [7] 90 % of control | endpoint: mean survival time, dose: 100.0 mg/kg/injection, schedule: Q04DX002 (ip), vehicle: saline 98 % of control

Cc1ccc(C(=S)NC(=O)Nc2ccccc2)cc1
inactive: [10] 97 % of control | [12] 94 % of control | [17] 97 % of control

O=[N+]([O-])O.[NH2-].[NH2-].[NH2-].[NH2-].[OH-].[OH-].[Pt+4].[Pt+4]
inactive: endpoint: mean survival time, dose: 2.5 mg/kg/injection, schedule: Q04DX003 (ip), vehicle: water 89 % of control | endpoint: mean survival time, dose: 5.0 mg/kg/injection, schedule: Q04DX003 (ip), vehicle: water 97 % of control | endpoint: median survival time, dose: 0.15 mg/kg/injection, schedule: Q04DX003 (ip), vehicle: water 97 % of control | endpoint: median survival time, dose: 0.31 mg/kg/injection, schedule: Q04DX003 (ip), vehicle: water 97 % of control

N#C/C(=C\c1ccco1)c1ccc([N+](=O)[O-])cc1
inactive: endpoint: mean survival time, dose: 6.25 mg/kg/injection, schedule: Q04DX003 (ip), vehicle: saline with Tween-80 102 % of control | endpoint: mean survival time, dose: 12.5 mg/kg/injection, schedule: Q04DX003 (ip), vehicle: saline with Tween-80 102 % of control | [4] 100 % of control | [18] 106 % of control | [19] 95 % of control | [20] 94 % of control

Oc1ccc(NC(=S)Nc2ccccc2)cc1
inactive: [14] 98 % of control | [15] 98 % of control | [16] 96 % of control

CSC(=S)N(C)/N=C/c1cccc(C)n1
inactive: [2] 96 % of control | [3] 102 % of control | [6] 102 % of control

CN1COc2c(n(C)c(=O)[nH]c2=O)C1
inactive: [21] 98 % of control | endpoint: median survival time, dose: 50.0 mg/kg/injection, schedule: Q01DX005 (ip), vehicle: suspension in saline 101 % of control | [22] 98 % of control | endpoint: median survival time, dose: 100.0 mg/kg/injection, schedule: Q01DX005 (ip), vehicle: suspension in saline 103 % of control | [23] 101 % of control | endpoint: median survival time, dose: 200.0 mg/kg/injection, schedule: Q01DX005 (ip), vehicle: suspension in saline 102 % of control | endpoint: median survival time, dose: 400.0 mg/kg/injection, schedule: Q01DX005 (ip), vehicle: saline 109 % of control | endpoint: median survival time, dose: 400.0 mg/kg/injection, schedule: Q01DX005 (ip), vehicle: suspension in saline 119 % of control | endpoint: median survival time, dose: 800.0 mg/kg/injection, schedule: Q01DX005 (ip), vehicle: saline 108 % of control | endpoint: median survival time, dose: 800.0 mg/kg/injection, schedule: Q01DX005 (ip), vehicle: suspension in saline 116 % of control

NC(=O)Cc1c(Cl)n(-c2ccccc2)c2ccccc12
inactive: endpoint: mean survival time, dose: 50.0 mg/kg/injection, schedule: Q04DX003 (ip), vehicle: Klucel (hydroxypropylcellulose) (HPC) 95 % of control | endpoint: mean survival time, dose: 100.0 mg/kg/injection, schedule: Q04DX003 (ip), vehicle: Klucel (hydroxypropylcellulose) (HPC) 102 % of control | endpoint: mean survival time, dose: 200.0 mg/kg/injection, schedule: Q04DX003 (ip), vehicle: Klucel (hydroxypropylcellulose) (HPC) 95 % of control

COc1c(NC(=O)Nc2cccc(Cl)c2)cccc1[N+](=O)[O-]
inactive: [7] 92 % of control | [8] 88 % of control

CCN1CCCSC1=S
inactive: endpoint: mean survival time, dose: 75.0 mg/kg/injection, schedule: Q01DX001 (ip), vehicle: other 98 % of control | endpoint: mean survival time, dose: 150.0 mg/kg/injection, schedule: Q01DX001 (ip), vehicle: other 103 % of control

CC(=O)Nc1c(C#N)ncn1C1OC(CO)C(O)C1O (stereo not drawn)
inactive: endpoint: median survival time, dose: 12.5 mg/kg/injection, schedule: Q01DX005 (ip), vehicle: saline 104 % of control | endpoint: median survival time, dose: 25.0 mg/kg/injection, schedule: Q01DX005 (ip), vehicle: saline 103 % of control | [21] 92 % of control | [22] 101 % of control | [23] 100 % of control

— PubChem BioAssay AID256 (DTP/NCI, 2004)
